Assay results reported in US20240317791A1 (priority 2021, published 2024).
Like-named read-outs stand apart in the source and are kept apart here. Numbered stars: 1 amine (or outer) side, 2 acyl side, 3 side chain; on linkers, the order of the positions; unused ones are H or OH. Bridge positions count the residues as written; N and C are the ends. Square brackets hold non-standard residues; d marks the D form. Peptide text beside a SMILES is read from it. * marks the point of attachment. hTyr(3S-OH,4S-OH,3'-OSO3H) = N[C@H](C(=O)O)[C@H](O)[C@@H](O)c1ccc(O)c(OS(=O)(=O)O)c1; Orn(4R-OH,5R-OH) = O=C([C@H](C[C@@H](O)[C@@H](O)N[*:3])N[*:1])[*:2]; Pro(3S-OH,4S-Me) = C[C@H]1CN[C@H](C(=O)O)[C@H]1O; X1 = CCCCCOc1ccc(-c2cc(-c3ccc(C(=O)*)cc3)no2)cc1; Gln(3R-OH) = NC(=O)C[C@@H](O)[C@H](N)C(=O)O; Hyp = O=C(O)[C@@H]1C[C@@H](O)CN1

Key:
Candida auris = test: MIC determination against clinical isolates of Candida auris (CLSI M27, 4th edition); format: cell-based; details: Candidozyma auris
Excerpt: (§1) MIC: Minimum Inhibitory Concentration (MIC) is defined as the lowest concentration of an antimicrobial ingredient that is bacteriostatic.
(§2) Testing has been performed in triplicates for each isolate.

Trichophyton spp. = details: 7 strains of Trichophyton spp.; cited from earlier work
Sporothrix schenkii = details: 1 strain of Sporothrix schenkii; cited from earlier work
Penicillium spp. = details: 5 strains of Penicillium spp.; cited from earlier work
Rhizopus microsporus = test: MIC determination against clinical isolates of the order Mucorales (CLSI M27, 4th edition); format: cell-based
Excerpt: as §1, §2

Rhizopus oryzae [1] = test: as above; format: cell-based; details: Rhizopus arrhizus, strain 2086, clinical strain
Excerpt: as §1, §2

Microsporum spp. = details: 2 strains of Microsporum spp; cited from earlier work
Rhizopus oryzae [2] = details: 4 strains of Rhizopus oryzae; cited from earlier work
Aspergillus spp. = details: 13 strains of Aspergillus spp.; cited from earlier work
[3] = rats, single intravenous administration; amcipatricin diascorbate 1.25 mg/kg, amphotericin B 1 mg/kg; cited from earlier work
Mucor circinelloides = test: MIC determination against ATCC and clinical isolates of the order Mucorales (CLSI M27, 4th edition); format: cell-based
Excerpt: as §1, §2

[4] = strain I.2 (No 2), clade I/India, read-out: MIC values
[5] = strain I.3 (No 3), clade I/India, read-out: MIC values
[6] = strain I.4 (No 4), clade I/India, read-out: MIC values
[7] = strain II.1 (No 5), clade II/Japan, read-out: MIC values
[8] = strain II.2 (No 1), clade II/India, read-out: MIC values
[9] = strain III.7 (No 12), clade III/Switzerland, read-out: MIC values
[10] = strain III.8 (No 13), clade III/Israel, read-out: MIC values
[11] = strain III.9 (No 14), clade III/Israel, read-out: MIC values
[12] = strain IV.1 (No 15), clade IV/Colombia, read-out: MIC values
[13] = strain IV.10 (No 7), clade IV/Israel, read-out: MIC values
[14] = strain IV.11 (No 8), clade IV/Israel, read-out: MIC values
[15] = strain IV.12 (No 9), clade IV/Israel, read-out: MIC values
[16] = strain IV.13 (No 10), clade IV/Israel, read-out: MIC values
[17] = strain IV.14 (No 11), clade IV/Israel, read-out: MIC values
[18] = strain IV.2 (No 16), clade IV/Colombia, read-out: MIC values
[19] = strain IV.3 (No 17), clade IV/Colombia, read-out: MIC values
[20] = strain IV.4 (No 18), clade IV/Colombia, read-out: MIC values
[21] = strain IV.5 (No 19), clade IV/Colombia, read-out: MIC values
[22] = strain IV.6 (No 20), clade IV/Colombia, read-out: MIC values
[23] = strain IV.7 (No 21), clade IV/Colombia, read-out: MIC values
[24] = strain IV.8 (No 22), clade IV/Colombia, read-out: MIC values
[25] = strain IV.9 (No 6), clade IV/Israel, read-out: MIC values
[26] = ATCC24905, strain ATCC 24905, ATCC strain

OC(Cn1cncn1)(Cn1cncn1)c1ccc(F)cc1F [Fluconazole]
1020 µg/mL: MIC (Candida auris; [4]) | MIC (Candida auris; [5]) | MIC (Candida auris; [6]) | MIC (Candida auris; [9]) | MIC (Candida auris; [11]) | MIC (Candida auris; [23]) | MIC (Candida auris; [24])
32 µg/mL: MIC (Candida auris; [8]) | MIC (Candida auris; [13]) | MIC (Candida auris; [14]) | MIC (Candida auris; [15]) | MIC (Candida auris; [16]) | MIC (Candida auris; [17])
16 µg/mL: MIC (Candida auris; [25])
4 µg/mL: MIC (Candida auris; [7]) | MIC (Candida auris; [12])
128 µg/mL: MIC (Candida auris; [18]) | MIC (Candida auris; [19]) | MIC (Candida auris; [20]) | MIC (Candida auris; [21]) | MIC (Candida auris; [22])
512 µg/mL: MIC (Candida auris; [10])

CCCCCOc1ccc(-c2cc(-c3ccc(C(=O)N[C@H]4C[C@@H](O)[C@@H](O)NC(=O)[C@@H]5[C@@H](O)[C@@H](C)CN5C(=O)[C@H]([C@H](O)CC(N)=O)NC(=O)[C@H]([C@H](O)[C@@H](O)c5ccc(O)c(OS(=O)(=O)O)c5)NC(=O)[C@@H]5C[C@@H](O)CN5C(=O)[C@H]([C@@H](C)O)NC4=O)cc3)no2)cc1 [Micafungin] (X1-[Orn(4R-OH,5R-OH)]T[Hyp][hTyr(3S-OH,4S-OH,3'-OSO3H)][Gln(3R-OH)][Pro(3S-OH,4S-Me)]; lactam 1-C)
0.125 µg/mL: MIC (Candida auris; read-out: MIC values, strain I.2 (No 2), clade I/India) | MIC (Candida auris; read-out: MIC values, strain I.4 (No 4), clade I/India) | MIC (Candida auris; read-out: MIC values, strain II.1 (No 5), clade II/Japan) | MIC (Candida auris; read-out: MIC values, strain II.2 (No 1), clade II/India) | MIC (Candida auris; read-out: MIC values, strain IV.1 (No 15), clade IV/Colombia) | MIC (Candida auris; read-out: MIC values, strain IV.2 (No 16), clade IV/Colombia) | MIC (Candida auris; read-out: MIC values, strain IV.3 (No 17), clade IV/Colombia) | MIC (Candida auris; read-out: MIC values, strain IV.4 (No 18), clade IV/Colombia) | MIC (Candida auris; read-out: MIC values, strain IV.5 (No 19), clade IV/Colombia) | MIC (Candida auris; read-out: MIC values, strain IV.6 (No 20), clade IV/Colombia)
> 1020 µg/mL: MIC (Candida auris; read-out: MIC values, strain I.3 (No 3), clade I/India)
0.5 µg/mL: MIC (Candida auris; read-out: MIC values, strain IV.14 (No 11), clade IV/Israel)
0.25 µg/mL: MIC (Candida auris; read-out: MIC values, strain III.7 (No 12), clade III/Switzerland) | MIC (Candida auris; read-out: MIC values, strain III.8 (No 13), clade III/Israel) | MIC (Candida auris; read-out: MIC values, strain III.9 (No 14), clade III/Israel) | MIC (Candida auris; read-out: MIC values, strain IV.10 (No 7), clade IV/Israel) | MIC (Candida auris; read-out: MIC values, strain IV.11 (No 8), clade IV/Israel) | MIC (Candida auris; read-out: MIC values, strain IV.12 (No 9), clade IV/Israel) | MIC (Candida auris; read-out: MIC values, strain IV.13 (No 10), clade IV/Israel) | MIC (Candida auris; read-out: MIC values, strain IV.7 (No 21), clade IV/Colombia) | MIC (Candida auris; read-out: MIC values, strain IV.8 (No 22), clade IV/Colombia) | MIC (Candida auris; read-out: MIC values, strain IV.9 (No 6), clade IV/Israel)

C[C@@H]1[C@H](O)[C@@H](C)/C=C/C=C/C=C/C=C/C=C/C=C/C=C/[C@H](O[C@@H]2O[C@H](C)[C@@H](O)[C@H](N)[C@@H]2O)C[C@@H]2O[C@](O)(C[C@@H](O)C[C@@H](O)[C@H](O)CC[C@@H](O)C[C@@H](O)CC(=O)O[C@H]1C)C[C@H](O)[C@H]2C(=O)O [Amphotericin B]
0.5 µg/mL: MIC (Rhizopus microsporus; strain 3435, clinical strain) | MIC (Mucor circinelloides; strain 2109, clinical strain) | MIC (Candida auris; [7]) | MIC (Candida auris; [9]) | MIC (Candida auris; [10]) | MIC (Candida auris; [14]) | MIC (Candida auris; [15]) | MIC (Candida auris; [17]) | MIC (Candida auris; [25])
about 12 μg/mL: geometric means of the minimum fungicidal concentrations (Penicillium spp.)
1 µg/mL: MIC (Rhizopus oryzae [1]) | MIC (Mucor circinelloides; strain 4280, clinical strain) | MIC (Candida auris; [4]) | MIC (Candida auris; [5]) | MIC (Candida auris; [6]) | MIC (Candida auris; [11]) | MIC (Candida auris; [16]) | MIC (Candida auris; [20]) | MIC (Candida auris; [21]) | MIC (Candida auris; [22]) | MIC (Candida auris; [23]) | MIC (Candida auris; [24])
lower: geometric means of the minimum fungicidal concentration values compared to amcipatricin diascorbate (Trichophyton spp.) | geometric means of the minimum fungicidal concentration values compared to amcipatricin diascorbate (Microsporum spp.) | geometric means of the minimum fungicidal concentration values compared to amcipatricin diascorbate (Rhizopus oryzae [2])
10330 ng·h/mL: area under the curve to infinity (AUC(0-∞)) [3]
18.15 h: elimination half-lives [3]
0.25 µg/mL: MIC (Rhizopus microsporus; strain 3315, clinical strain) | MIC (Mucor circinelloides; [26]) | MIC (Mucor circinelloides; strain 2707, clinical strain) | MIC (Candida auris; [8]) | MIC (Candida auris; [13])
19.2 µg/mL: MFC (Sporothrix schenkii)
2 µg/mL: MIC (Candida auris; [12]) | MIC (Candida auris; [18]) | MIC (Candida auris; [19])
12.53 µg/mL: geometric means of the minimum fungicidal concentrations (Aspergillus spp.)

C[C@@H](c1ncncc1F)[C@](O)(Cn1cncn1)c1ccc(F)cc1F [Voriconazole]
0.0625 µg/mL: MIC (Candida auris; [7]) | MIC (Candida auris; [12])
1 µg/mL: MIC (Candida auris; [4]) | MIC (Candida auris; [6]) | MIC (Candida auris; [8]) | MIC (Candida auris; [15]) | MIC (Candida auris; [17]) | MIC (Candida auris; [18]) | MIC (Candida auris; [19]) | MIC (Candida auris; [25])
8 µg/mL: MIC (Candida auris; [23]) | MIC (Candida auris; [24])
2 µg/mL: MIC (Candida auris; [5]) | MIC (Candida auris; [9]) | MIC (Candida auris; [10]) | MIC (Candida auris; [11])
0.5 µg/mL: MIC (Candida auris; [13]) | MIC (Candida auris; [14]) | MIC (Candida auris; [16]) | MIC (Candida auris; [20]) | MIC (Candida auris; [21]) | MIC (Candida auris; [22])

CC[C@@H]([C@H](C)O)n1ncn(-c2ccc(N3CCN(c4ccc(OC[C@@H]5CO[C@@](Cn6cncn6)(c6ccc(F)cc6F)C5)cc4)CC3)cc2)c1=O [Posaconazole]
0.5 µg/mL: MIC (Rhizopus microsporus; strain 3435, clinical strain) | MIC (Mucor circinelloides; strain 2109, clinical strain) | MIC (Mucor circinelloides; strain 2707, clinical strain)
1 µg/mL: MIC (Mucor circinelloides; [26]) | MIC (Mucor circinelloides; strain 4280, clinical strain)
0.25 µg/mL: MIC (Rhizopus oryzae [1])
